Reference: patent EP4692114A1, “CALCITONIN ANALOGUE, AND DERIVATIVE THEREOF AND USE THEREOF” (Hangzhou Sciwind Biosciences Co., Ltd., priority 2023, dated 2024)
*1 amine or outer side, *2 acyl side, *3 side chain or, on linkers, in order; H or OH if unused. Where a SMILES comes first, the peptide text is derived from it. The star is where a group is joined. C22 diacid = O=C(O)CCCCCCCCCCCCCCCCCCCCC(=O)*; C20 diacid = O=C(O)CCCCCCCCCCCCCCCCCCC(=O)*; C18 diacid = O=C(O)CCCCCCCCCCCCCCCCC(=O)*; C16 diacid = O=C(O)CCCCCCCCCCCCCCC(=O)*; γGlu = O=C(O)[C@H](CCC(=O)[*:2])N[*:1]; Trx = NC[C@H]1CC[C@H](C(=O)O)CC1; Inp = O=C(O)C1CCNCC1

Assay: Heat accelerated stability assay under a neutral condition
Format: physicochemical
Details: pH about 7.4, 40°C; for Changes in characteristics or properties, 0d / Changes in characteristics or properties, 7d: 1 mg/mL, phosphate; for Concentration change (7d-0d)/%: Day 7 vs Day 0, reversed phase chromatography; for Purity Change% (7d-0d) / Purity Change% (26d-0d): purity from reversed phase chromatography-214 nm; for Purity Change% (7d-0d): Day 7 vs Day 0; for Purity Change% (26d-0d): Day 26 vs Day 0
Protocol: The lyophilized powder (1 mg/mL) of calcitonin analogues or derivatives prepared in accordance with the method of Example 1 were mixed with sodium dihydrogen phosphate (1.42 mg/mL) and dissolved in ultrapure water in the indicated mass-volume ratios. After adjusting pH to about 7.4 with hydrochloric acid/sodium hydroxide, the solution was filtered into a sterilized vial in a clean bench using a 0.22 µm sterile filter. The vial was then capped and placed into the stability test chamber at 40°C. Detections were made on Days 7 (7d) and 26 (26d), and during the assay, changes in the characteristics and properties of the polypeptides were observed and recorded. The sample was then centrifuged for 3 min at 10000 rpm at 4°C, and the supernatant was transferred to a liquid phase sample vial for detecting the concentration and purity of the polypeptides using liquid phase chromatography described as below, wherein the concentration of the polypeptide = peak area/injection volume/extinction coefficient/60×flow rate, and the purity of the polypeptide = target peak area/total peak area× 100%.
Conditions of the reversed phase chromatography Flow rate: 1.0 ml/min; Autosampler temperature: 15°C; Column temperature: 25°C; Detection wavelengths: 280 nm and 214 nm; Mobile phase A: 100% H2O+0.05% TFA; Mobile phase B: 100% ACN; and Gradient of elution listed in Table 4: Table 4. Listing of the gradient of elution in the liquid phase chromatography
Results were shown below in Tables 5, 6, and 7. A difference of more than 5% in content as compared with the initial value was typically assumed (for example, as prescribed by the Chinese Pharmacopeia (2020 Edition)) to be a significant change. Within a reasonable margin of error, a decrease of less than 1% from the initial value to the detected content is denoted as "no change" below. Table 5. Changes in characteristics or properties in the heat accelerated stability assay

SMILES: CC(C)C[C@H](NC(=O)[C@H](CCCNC(=N)N)NC(=O)CNC(=O)[C@H](CC(C)C)NC(=O)[C@@H](NC(=O)[C@H](C)NC(=O)[C@@H](NC(=O)[C@H](CO)NC(=O)[C@H](CC(C)C)NC(=O)[C@H](CCC(N)=O)NC(=O)[C@H](CO)NC(=O)[C@H](C)NC(=O)CC[C@H](NC(=O)CCCCCCCCCCCCCCCCCCCCC(=O)O)C(=O)O)[C@@H](C)O)C(C)C)C(=O)N[C@@H](CO)C(=O)N[C@@H](CC(=O)O)C(=O)N[C@@H](CCC(=O)O)C(=O)N[C@@H](CC(C)C)C(=O)N[C@@H](Cc1c[nH]cn1)C(=O)N[C@@H](CCCNC(=N)N)C(=O)N[C@@H](CC(C)C)C(=O)N[C@@H](CCC(N)=O)C(=O)N[C@@H](CC(=O)O)C(=O)N[C@@H](Cc1ccc(O)cc1)C(=O)N1CCC[C@H]1C(=O)N[C@@H](CCCNC(=N)N)C(=O)N[C@H](C(=O)N[C@@H](CC(=O)O)C(=O)N[C@H](C(=O)NCC(=O)N[C@@H](CO)C(=O)NCC(=O)N[C@@H](CO)C(=O)N1CCC[C@H]1C(N)=O)C(C)C)[C@@H](C)O [M38] ({C22 diacid-γGlu}-ASQLSTAVLGRLSDELHRLQDYPRTDVGSGSP-NH2)
- Changes in characteristics or properties, 0d: Clear
- Changes in characteristics or properties, 7d: Clear
- Concentration change (7d-0d)/%: No change (a decrease of less than 1% from the initial value to the detected content is denoted as "no change")
- Purity Change% (7d-0d): No change (a decrease of less than 1% from the initial value to the detected content is denoted as "no change")
- Purity Change% (26d-0d): No change (a decrease of less than 1% from the initial value to the detected content is denoted as "no change")

SMILES: CC(C)C[C@H](NC(=O)[C@H](CCCNC(=N)N)NC(=O)CNC(=O)[C@H](CC(C)C)NC(=O)[C@@H](NC(=O)[C@H](C)NC(=O)[C@@H](NC(=O)[C@H](CO)NC(=O)[C@H](CC(C)C)NC(=O)[C@H](CCC(N)=O)NC(=O)[C@H](CO)NC(=O)[C@H](C)NC(=O)CC[C@H](NC(=O)CCCCCCCCCCCCCCC(=O)O)C(=O)O)[C@@H](C)O)C(C)C)C(=O)N[C@@H](CO)C(=O)N[C@@H](CC(=O)O)C(=O)N[C@@H](CCC(=O)O)C(=O)N[C@@H](CC(C)C)C(=O)N[C@@H](Cc1c[nH]cn1)C(=O)N[C@@H](CCCNC(=N)N)C(=O)N[C@@H](CC(C)C)C(=O)N[C@@H](CCC(N)=O)C(=O)N[C@@H](CC(=O)O)C(=O)N[C@@H](Cc1ccc(O)cc1)C(=O)N1CCC[C@H]1C(=O)N[C@@H](CCCNC(=N)N)C(=O)N[C@H](C(=O)N[C@@H](CC(=O)O)C(=O)N[C@H](C(=O)NCC(=O)N[C@@H](CO)C(=O)NCC(=O)N[C@@H](CO)C(=O)N1CCC[C@H]1C(N)=O)C(C)C)[C@@H](C)O [M40] ({C16 diacid-γGlu}-ASQLSTAVLGRLSDELHRLQDYPRTDVGSGSP-NH2)
- Changes in characteristics or properties, 0d: Clear
- Changes in characteristics or properties, 7d: Clear
- Concentration change (7d-0d)/%: -2.280%
- Purity Change% (7d-0d): -1.67%
- Purity Change% (26d-0d): -4.82%

SMILES: CC(C)C[C@H](NC(=O)[C@H](CCCNC(=N)N)NC(=O)CNC(=O)[C@H](CC(C)C)NC(=O)[C@@H](NC(=O)[C@H](C)NC(=O)[C@@H](NC(=O)[C@H](CO)NC(=O)[C@H](CC(C)C)NC(=O)[C@H](CCC(N)=O)NC(=O)[C@H](CO)NC(=O)[C@H](C)NC(=O)[C@H](CCC(=O)O)NC(=O)CCCCCCCCCCCCCCCCCCC(=O)O)[C@@H](C)O)C(C)C)C(=O)N[C@@H](CO)C(=O)N[C@@H](CC(=O)O)C(=O)N[C@@H](CCC(=O)O)C(=O)N[C@@H](CC(C)C)C(=O)N[C@@H](Cc1c[nH]cn1)C(=O)N[C@@H](CCCNC(=N)N)C(=O)N[C@@H](CC(C)C)C(=O)N[C@@H](CCC(N)=O)C(=O)N[C@@H](CC(=O)O)C(=O)N[C@@H](Cc1ccc(O)cc1)C(=O)N1CCC[C@H]1C(=O)N[C@@H](CCCNC(=N)N)C(=O)N[C@H](C(=O)N[C@@H](CC(=O)O)C(=O)N[C@H](C(=O)NCC(=O)N[C@@H](CO)C(=O)NCC(=O)N[C@@H](CO)C(=O)N1CCC[C@H]1C(N)=O)C(C)C)[C@@H](C)O [M41] ({C20 diacid}-EASQLSTAVLGRLSDELHRLQDYPRTDVGSGSP-NH2)
- Changes in characteristics or properties, 0d: Clear
- Changes in characteristics or properties, 7d: Clear
- Concentration change (7d-0d)/%: -3.134%
- Purity Change% (7d-0d): -1.66%
- Purity Change% (26d-0d): -5.98%

SMILES: CC(C)C[C@H](NC(=O)[C@H](CCCNC(=N)N)NC(=O)CNC(=O)[C@H](CC(C)C)NC(=O)[C@@H](NC(=O)[C@H](C)NC(=O)[C@@H](NC(=O)[C@H](CO)NC(=O)[C@H](CC(C)C)NC(=O)[C@H](CCC(N)=O)NC(=O)[C@H](CO)NC(=O)[C@H](C)NC(=O)[C@H]1CC[C@H](CNC(=O)CCCCCCCCCCCCCCCCCCC(=O)O)CC1)[C@@H](C)O)C(C)C)C(=O)N[C@@H](CO)C(=O)N[C@@H](CC(=O)O)C(=O)N[C@@H](CCC(=O)O)C(=O)N[C@@H](CC(C)C)C(=O)N[C@@H](Cc1c[nH]cn1)C(=O)N[C@@H](CCCNC(=N)N)C(=O)N[C@@H](CC(C)C)C(=O)N[C@@H](CCC(N)=O)C(=O)N[C@@H](CC(=O)O)C(=O)N[C@@H](Cc1ccc(O)cc1)C(=O)N1CCC[C@H]1C(=O)N[C@@H](CCCNC(=N)N)C(=O)N[C@H](C(=O)N[C@@H](CC(=O)O)C(=O)N[C@H](C(=O)NCC(=O)N[C@@H](CO)C(=O)NCC(=O)N[C@@H](CO)C(=O)N1CCC[C@H]1C(N)=O)C(C)C)[C@@H](C)O [M45] ({C20 diacid-Trx}-ASQLSTAVLGRLSDELHRLQDYPRTDVGSGSP-NH2)
- Changes in characteristics or properties, 0d: Clear
- Changes in characteristics or properties, 7d: Clear
- Concentration change (7d-0d)/%: -2.670%
- Purity Change% (7d-0d): No change (a decrease of less than 1% from the initial value to the detected content is denoted as "no change")
- Purity Change% (26d-0d): -1.77%

SMILES: CC(C)C[C@H](NC(=O)[C@H](CCCNC(=N)N)NC(=O)CNC(=O)[C@H](CC(C)C)NC(=O)[C@@H](NC(=O)[C@H](C)NC(=O)[C@@H](NC(=O)[C@H](CO)NC(=O)[C@H](CC(C)C)NC(=O)[C@H](CCC(N)=O)NC(=O)[C@H](CO)NC(=O)[C@H](C)NC(=O)[C@H]1CC[C@H](CNC(=O)CCCCCCCCCCCCCCCCC(=O)O)CC1)[C@@H](C)O)C(C)C)C(=O)N[C@@H](CO)C(=O)N[C@@H](CC(=O)O)C(=O)N[C@@H](CCC(=O)O)C(=O)N[C@@H](CC(C)C)C(=O)N[C@@H](Cc1c[nH]cn1)C(=O)N[C@@H](CCCNC(=N)N)C(=O)N[C@@H](CC(C)C)C(=O)N[C@@H](CCC(N)=O)C(=O)N[C@@H](CC(=O)O)C(=O)N[C@@H](Cc1ccc(O)cc1)C(=O)N1CCC[C@H]1C(=O)N[C@@H](CCCNC(=N)N)C(=O)N[C@H](C(=O)N[C@@H](CC(=O)O)C(=O)N[C@H](C(=O)NCC(=O)N[C@@H](CO)C(=O)NCC(=O)N[C@@H](CO)C(=O)N1CCC[C@H]1C(N)=O)C(C)C)[C@@H](C)O [M46] ({C18 diacid-Trx}-ASQLSTAVLGRLSDELHRLQDYPRTDVGSGSP-NH2)
- Changes in characteristics or properties, 0d: Clear
- Changes in characteristics or properties, 7d: Clear
- Concentration change (7d-0d)/%: No change (a decrease of less than 1% from the initial value to the detected content is denoted as "no change")
- Purity Change% (7d-0d): No change (a decrease of less than 1% from the initial value to the detected content is denoted as "no change")
- Purity Change% (26d-0d): -5.67%

SMILES: CC(C)C[C@H](NC(=O)[C@H](CCCNC(=N)N)NC(=O)CNC(=O)[C@H](CC(C)C)NC(=O)[C@@H](NC(=O)[C@H](C)NC(=O)[C@@H](NC(=O)[C@H](CO)NC(=O)[C@H](CC(C)C)NC(=O)[C@H](CCC(N)=O)NC(=O)[C@H](CO)NC(=O)[C@H](C)NC(=O)C1CCN(C(=O)CCCCCCCCCCCCCCCCCCC(=O)O)CC1)[C@@H](C)O)C(C)C)C(=O)N[C@@H](CO)C(=O)N[C@@H](CC(=O)O)C(=O)N[C@@H](CCC(=O)O)C(=O)N[C@@H](CC(C)C)C(=O)N[C@@H](Cc1c[nH]cn1)C(=O)N[C@@H](CCCNC(=N)N)C(=O)N[C@@H](CC(C)C)C(=O)N[C@@H](CCC(N)=O)C(=O)N[C@@H](CC(=O)O)C(=O)N[C@@H](Cc1ccc(O)cc1)C(=O)N1CCC[C@H]1C(=O)N[C@@H](CCCNC(=N)N)C(=O)N[C@H](C(=O)N[C@@H](CC(=O)O)C(=O)N[C@H](C(=O)NCC(=O)N[C@@H](CO)C(=O)NCC(=O)N[C@@H](CO)C(=O)N1CCC[C@H]1C(N)=O)C(C)C)[C@@H](C)O [M47] ({C20 diacid-Inp}-ASQLSTAVLGRLSDELHRLQDYPRTDVGSGSP-NH2)
- Changes in characteristics or properties, 0d: Clear
- Changes in characteristics or properties, 7d: Clear
- Concentration change (7d-0d)/%: -3.488%
- Purity Change% (7d-0d): No change (a decrease of less than 1% from the initial value to the detected content is denoted as "no change")
- Purity Change% (26d-0d): No change (a decrease of less than 1% from the initial value to the detected content is denoted as "no change")
